From publication PMC4132815, “Structure and Function of the Bacterial Heterodimeric ABC Transporter CydDC” (The Journal of Biological Chemistry, 2014)

Experiments:
CydDC (C-His6-CydDC) [1] = target: T1, CydDC (C-His6-CydDC) (Escherichia coli, UniProt P23886+P29018, P29018:INS2NS); assay: stimulation of ATPase activity (colorimetric Pi release); type: biochemical; conditions: peak 2 in 0.02% DDM; 5 mM compound; 2 mM ATP, 10 mM MgCl2, pH 7.5, 37 °C; activator
T1 construct: gene cydD; full-length heterodimer (64 + 63 kDa); plasmid pHX100 in E. coli BL21

CydDC (C-His6-CydDC) [2] = target: T1, CydDC (C-His6-CydDC); assay: as above; type: biochemical

Compound | % of basal ATPase activity at 5 mM (CydDC (C-His6-CydDC) [1]) | EC50 (CydDC (C-His6-CydDC) [2]) [µM]
N[C@@H](Cc1cnc[nH]1)C(=O)O [L-histidine] | Significant changes in ATPase activity were invoked only with thiols and L-histidine | 
N[C@@H](CS)C(=O)O [cysteine] |  | 26 ± 3
